Data as given in PubChem BioAssay AID248 (DTP/NCI, 2004).
Toxic doses and inconclusive results are not listed. No stated cut-off is given here; in the data, active means T/C of 150% or more; inactive means T/C below 125%.

Test system: L1210 leukemia ip in BDF1 mice, survival T/C
Test: NCI In Vivo Anticancer Drug Screen. Data for tumor model L1210 Leukemia (intraperitoneal) in B6D2F1 (BDF1) mice
Conditions: endpoint: mean survival time, higher = longer survival
How it was run: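 Read-out is survival time, reported as the treated-group measurement over the vehicle-control measurement.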

Measured: T/C

Cc1ccccc1OCC(O)COC(N)=O (stereo unspecified)
inactive: dose: 0.62 mg/kg/injection, schedule: Q04DX003 (ip), vehicle: saline 100 % of control | dose: 1.25 mg/kg/injection, schedule: Q04DX003 (ip), vehicle: saline 100 % of control | dose: 2.5 mg/kg/injection, schedule: Q04DX003 (ip), vehicle: saline 112 % of control | dose: 5.0 mg/kg/injection, schedule: Q04DX003 (ip), vehicle: saline 98 % of control | dose: 10.0 mg/kg/injection, schedule: Q04DX003 (ip), vehicle: saline 98 % of control

CC(C)=CCC/C(C)=C/C(=O)O
inactive: dose: 100.0 mg/kg/injection, schedule: Q01DX001 (ip), vehicle: saline 100 % of control | dose: 200.0 mg/kg/injection, schedule: Q01DX001 (ip), vehicle: saline 93 % of control | dose: 400.0 mg/kg/injection, schedule: Q01DX001 (ip), vehicle: saline 93 % of control

O=C1c2ccccc2-c2ccc(NC(=O)C(F)(F)F)cc21
inactive: dose: 100.0 mg/kg/injection, schedule: Q01DX001 (ip), vehicle: saline with Tween-80 92 % of control | dose: 200.0 mg/kg/injection, schedule: Q01DX001 (ip), vehicle: saline with Tween-80 90 % of control | dose: 400.0 mg/kg/injection, schedule: Q01DX001 (ip), vehicle: saline with Tween-80 92 % of control
